Patent US6673368B2, “Colonic motor dysfunction remedies comprising aminothiazole derivatives as active ingredients” (Zeria Phamaceutical Co., Ltd., priority 2000, dated 2004)

How the values were obtained:
[1] = tested on: gastric antrum of male dogs; assay: Effects on gastric motor activity (force transducers, conscious dogs, postcibal period); assay type: in vivo; details: dog, until 1 hour after administration, 30 minutes before administration = 100%
From the text: (§1) Test 1 [Effects on Gastric and Colonic Motor Activity]
(§2) Force transducers (“F-12IS”, trade name; manufactured by Star Medical Technologies, Inc.) were chronically sutured in the gastric antrum and large intestines of male dogs (body weight: 9 to 11 kg, 5 to 6 dogs per group) (Itoh, Z. et al., Am. J. Dig. Dis. 22, 117-124, 1977). Contraction signals from the respective regions in postcibal period were amplified and recorded (“RTA-1200”, trade name; manufactured by Nihon Kohden Corporation). The contraction signals, which had been collected in a computer, were analyzed by using an analysis program (“DSSDDWHD V.30”, trade name; prepared by Nihon Kohden Corporation), whereby motor indexes were calculated. The test drugs were administered through catheters which had been chronically indwelled beforehand in the duodenum, respectively. Supposing that the coefficient of motor 30 minutes before the administration of drug was 100%, the results were calculated as percents of motor index until 1 hour after the administration.

[2] = tested on: large intestines of male dogs; assay: Effects on colonic motor activity (force transducers, conscious dogs, postcibal period); assay type: in vivo; details: dog; for Percent of motor index, large intestine: until 1 hour after administration, 30 minutes before administration = 100%; for Effect on colonic motility (in words): intraduodenal, doses of Table 1
From the text: as §1, §2

male SD rats = assay: Effects on defecation in rats; assay type: in vivo, rat; details: 10 mg/kg intraperitoneal, dry stool weight until 60 minutes after administration, control average = 100%
Description: Test 2 [Effects on Defecation]
Test drugs were intraperitoneally administered to male SD rats (8 rats per group). Stools were recovered until 60 minutes after the administration, and their dry weights were measured. Supposing that that the average of stool weights in a control group was 100%, the averages of percent weights of individual test drug groups were calculated.

Row | Compound | Percent of motor index, gastric antrum ([1]; 1 mg/kg intraduodenal) | Percent of motor index, large intestine ([2]; 1 mg/kg intraduodenal) | Effect on colonic motility (in words) [2] | Percent of motor index, gastric antrum ([1]; 10 mg/kg intraduodenal) | Percent of motor index, large intestine ([2]; 10 mg/kg intraduodenal) | Percent stool weight (male SD rats) | Percent of motor index, gastric antrum ([1]; 3 mg/kg intraduodenal) | Percent of motor index, large intestine ([2]; 3 mg/kg intraduodenal)
1 | COc1cc(N)c(Cl)cc1C(=O)NC1CCN(CCCOc2ccc(F)cc2)CC1OC (stereo not drawn) [Cisapride, cisapride] | 158.7% | 114.5% | no significant effect | – | – | – | – | –
2 | COc1cc(O)c(C(=O)Nc2nc(C(=O)NCCN(C(C)C)C(C)C)cs2)cc1OC.Cl.O.O.O [Compound 1, N-(N′,N′-diisopropylaminoethyl)-[2-(2-hydroxy-4,5-dimethoxybenzoylamino)-1,3-thiazol-4-yl]carboxamide HCL trihydrate] | – | – | – | 163.7% | 136.1% | 361.8% | – | –
3 | CC(C)N(CCNC(=O)c1csc(NC(=O)c2cccc(C#N)c2)n1)C(C)C.Cl [Compound 2, N-(N′,N′-diisopropylaminoethyl)-[2-(3-cyanobenzoyl-amino)-1,3-thiazol-4-yl]carboxamide hydrochloride] | – | – | – | 189.5% | 221.7% | 766.7% | – | –
4 | CC(C)N(CCNC(=O)c1csc(NC(=O)c2cccc(N)c2)n1)C(C)C [Compound 3, N-(N′,N′-diisopropylaminoethyl)-[2-(3-aminobenzoyl-amino)-1,3-thiazol-4-yl]carboxamide] | – | – | – | 244.6% | 249.9% | 733.3% | – | –
5 | COc1ccc(C(=O)NCc2ccc(OCCN(C)C)cc2)cc1OC [Itopride, itopride] | – | – | no significant effect | 132.7% | 122.1% | – | – | –
6 | CCOc1cc(N)c(Cl)cc1C(=O)NCC1CN(Cc2ccc(F)cc2)CCO1 (stereo not drawn) [Mosapride, mosapride] | – | – | no significant effect | – | – | – | 146.2% | 119.2%
